Data taken from patent publication US11685746B2, “Heteroaryl compounds for treating Huntington's disease” (PTC THERAPEUTICS, INC., priority 2018, dated 2023).

These compounds were tested on Endogenous Huntingtin Protein (assay: Endogenous Huntingtin Protein Assay (MSD plates, MW1 or MAB2166 capture antibody)). Conditions: Table 1.
Format: cell-based
Description: Endogenous Huntingtin Protein Assay
Meso Scale Discovery (MSD) 96-well or 384-well plates were coated overnight at 4° C. with MW1 (expanded polyglutamine) or MAB2166 monoclonal antibody (for capture) at a concentration of 1 μg/mL in PBS (30 μL per well). Plates were then washed three times with 300 μL wash buffer (0.05% Tween-20 in PBS) and blocked (100 μL blocking buffer; 5% BSA in PBS) for 4-5 hours at room temperature with rotational shaking and then washed three times with wash buffer.
Samples (25 μL) were transferred to the antibody-coated MSD plate and incubated overnight at 4° C. After removal of the lysates, the plate was washed three times with wash buffer, and 25 μL of #5656S (Cell signaling; rabbit monoclonal) secondary antibody (diluted to 0.25 μg/mL in 0.05% Tween-20 in blocking buffer) was added to each well and incubated with shaking for 1 Hour at room temperature. Following incubation with the secondary antibody, the wells were rinsed with wash buffer after which 25 μL of goat anti-rabbit SULFO TAG secondary detection antibody (required aspect of the MSD system) (diluted to 0.25 μg/mL in 0.05% Tween-20 in blocking buffer) was added to each well and incubated with shaking for 1 hour at room temperature. After rinsing three times with wash buffer, 150 μL of read buffer T with surfactant (MSD) were added to each empty well, and the plate was imaged on a SI 6000 imager (MSD) according to manufacturers' instructions provided for 96- or 384-well plates.

For `CN(c1nc2sc(-c3ccc(-c4cn[nH]c4)cc3O)nc2s1)C1CC(C)(C)NC(C)(C)C1` [Compound 1, 2-{5-[methyl(2,2,6,6-tetramethylpiperidin-4-yl)amino][1,3]thiazolo[5,4-d][1,3]thiazol-2-yl}-5-(1H-pyrazol-4-yl)phenol], which IC50 is on record?
The IC50 was ≤ 100 nM.

How did the IC50 turn out when `Cc1cc(-c2cn3cc(C4CCNCC4)nc3s2)cc2cn(C)nc12` [Compound 2, 2,7-dimethyl-5-[6-(piperidin-4-yl)imidazo[2,1-b][1,3]thiazol-2-yl]-2H-indazole] was run?
The IC50 was ≤ 100 nM.

With `CN(c1nc2sc(-c3ccc(-c4cn[nH]c4)c(F)c3F)nc2s1)C1CC(C)(C)NC(C)(C)C1` [Compound 3, 5-[2,3-difluoro-4-(1H-pyrazol-4-yl)phenyl]-N-methyl-N-(2,2,6,6-tetramethylpiperidin-4-yl)[1,3]thiazolo[5,4-d][1,3]thiazol-2-amine] as the compound, how does the IC50 read?
Its IC50 is 100 to 500 nM.

`CN(c1nc2sc(-c3cc(F)c(-c4cn[nH]c4)cc3F)nc2s1)C1CC(C)(C)NC(C)(C)C1` [Compound 4, 5-[2,5-difluoro-4-(1H-pyrazol-4-yl)phenyl]-N-methyl-N-(2,2,6,6-tetramethylpiperidin-4-yl)[1,3]thiazolo[5,4-d][1,3]thiazol-2-amine] was tested. Which IC50 did it give?
Its IC50 is ≤ 100 nM.

With `CN(c1nc2sc(-c3cc(F)c(-c4cn[nH]c4)c(F)c3)nc2s1)C1CC(C)(C)NC(C)(C)C1` [Compound 5, 5-[3,5-difluoro-4-(1H-pyrazol-4-yl)phenyl]-N-methyl-N-(2,2,6,6-tetramethylpiperidin-4-yl)[1,3]thiazolo[5,4-d][1,3]thiazol-2-amine] as the compound, how does the IC50 read?
Its IC50 is ≤ 100 nM.

For `Oc1cc(-c2cn[nH]c2)ccc1-c1nc2sc(N3CCNCC3)nc2s1` [Compound 6, 2-[5-(piperazin-1-yl)[1,3]thiazolo[5,4-d][1,3]thiazol-2-yl]-5-(1H-pyrazol-4-yl)phenol], which IC50 is on record?
Its IC50 is 1000 to 3000 nM.

Which IC50 does the source give for `Cn1cc2cc(-c3nc4sc(N5CCNCC5)nc4s3)cc(C#N)c2n1` [Compound 7, 2-methyl-5-[5-(piperazin-1-yl)[1,3]thiazolo[5,4-d][1,3]thiazol-2-yl]-2H-indazole-7-carbonitrile] here?
The IC50 was 500 to 1000 nM.

How did the IC50 turn out when `Cc1cn2nc(-c3cn4cc(C5CCNCC5)nc4s3)cc(C)c2n1` [Compound 8, 2,8-dimethyl-6-[6-(piperidin-4-yl)imidazo[2,1-b][1,3]thiazol-2-yl]imidazo[1,2-b]pyridazine] was run?
Its IC50 is ≤ 100 nM.

`CN(c1nn2c(Cl)c(-c3ccc(-c4cn[nH]c4)cc3O)nc2s1)C1CC(C)(C)NC(C)(C)C1` [Compound 9, 2-{5-chloro-2-[methyl(2,2,6,6-tetramethylpiperidin-4-yl)amino]imidazo[2,1-b][1,3,4]thiadiazol-6-yl}-5-(1H-pyrazol-4-yl)phenol] was tested. Which IC50 did it give?
Its IC50 is 100 to 500 nM.

Which IC50 does the source give for `Cc1cn2cc(-c3nc4sc(C5CCNCC5)nc4s3)cc(C#N)c2n1` [Compound 10, 2-methyl-6-[5-(piperidin-4-yl)[1,3]thiazolo[5,4-d][1,3]thiazol-2-yl]imidazo[1,2-a]pyridine-8-carbonitrile] here?
The IC50 was 100 to 500 nM.

With `Cn1cc2cc(-c3nc4sc(C5CCNCC5)nc4s3)cc(F)c2n1` [Compound 11, 7-fluoro-2-methyl-5-[5-(piperidin-4-yl)[1,3]thiazolo[5,4-d][1,3]thiazol-2-yl]-2H-indazole] as the compound, how does the IC50 read?
Its IC50 is ≤ 100 nM.

With `Cc1cn2nc(-c3nc4sc(C5CCNCC5)nc4s3)cc(C)c2n1` [Compound 12, 2,8-dimethyl-6-[5-(piperidin-4-yl)[1,3]thiazolo[5,4-d][1,3]thiazol-2-yl]imidazo[1,2-b]pyridazine] as the compound, how does the IC50 read?
Its IC50 is 100 to 500 nM.

With `Oc1cc(-c2cn[nH]c2)ccc1-c1nc2sc(NC3CC4CCC(C3)N4)nc2s1` (stereo not drawn) [Compound 13, 2-{5-[(3-exo)-8-azabicyclo[3.2.1]oct-3-ylamino][1,3]thiazolo[5,4-d][1,3]thiazol-2-yl}-5-(1H-pyrazol-4-yl)phenol] as the compound, how does the IC50 read?
The IC50 was ≤ 100 nM.

With `CN(c1nc2sc(-c3ccc(-c4cn[nH]c4)cc3O)nc2s1)C1CCNCC1` [Compound 14, 2-{5-[methyl(piperidin-4-yl)amino][1,3]thiazolo[5,4-d][1,3]thiazol-2-yl}-5-(1H-pyrazol-4-yl)phenol] as the compound, how does the IC50 read?
The IC50 was ≤ 100 nM.

For `Cn1cc2cc(-c3nc4sc(C5CCNCC5)nc4s3)cc(C#N)c2n1` [Compound 15, 2-methyl-5-[5-(piperidin-4-yl)[1,3]thiazolo[5,4-d][1,3]thiazol-2-yl]-2H-indazole-7-carbonitrile], which IC50 is on record?
Its IC50 is ≤ 100 nM.

How did the IC50 turn out when `Cc1cc(-c2nc3sc(C4CCNCC4)nc3s2)cc2cn(C)nc12` [Compound 16, 2,7-dimethyl-5-[5-(piperidin-4-yl)[1,3]thiazolo[5,4-d][1,3]thiazol-2-yl]-2H-indazole] was run?
Its IC50 is ≤ 100 nM.

`CN(c1nn2cc(-c3ccc(-c4cn[nH]c4)cc3O)nc2s1)C1CC(C)(C)NC(C)(C)C1` [Compound 17, 2-{2-[methyl(2,2,6,6-tetramethylpiperidin-4-yl)amino]imidazo[2,1-b][1,3,4]thiadiazol-6-yl}-5-(1H-pyrazol-4-yl)phenol] was tested. Which IC50 did it give?
Its IC50 is 500 to 1000 nM.

Which IC50 does the source give for `CN(c1nn2cc(-c3ccc(-c4cn[nH]c4)cc3O)nc2s1)C1CC2CCC(C1)N2` (stereo not drawn) [Compound 18, 2-{2-[(3-exo)-8-azabicyclo[3.2.1]oct-3-yl(methyl)amino]imidazo[2,1-b][1,3,4]thiadiazol-6-yl}-5-(1H-pyrazol-4-yl)phenol] here?
The IC50 was 100 to 500 nM.

`CN1C2CCC1CC(Nc1nn3cc(-c4ccc(-c5cn[nH]c5)cc4O)nc3s1)C2` (stereo not drawn) [Compound 19, 2-(2-{[(3-exo)-8-methyl-8-azabicyclo[3.2.1]oct-3-yl]amino]imidazo[2,1-b][1,3,4]thiadiazol-6-yl)-5-(1H-pyrazol-4-yl)phenol] was tested. Which IC50 did it give?
Its IC50 is 100 to 500 nM.

Which IC50 does the source give for `CN(c1nc2sc(-c3cc(F)c(-c4cn[nH]c4)cc3F)nc2s1)C1CCNCC1` [Compound 20, 5-[2,5-difluoro-4-(1H-pyrazol-4-yl)phenyl]-N-methyl-N-(piperidin-4-yl)[1,3]thiazolo[5,4-d][1,3]thiazol-2-amine] here?
The IC50 was 100 to 500 nM.

`CN(c1nc2sc(-c3cc(F)c(-c4cn[nH]c4)c(F)c3)nc2s1)C1CCNCC1` [Compound 21, 5-[3,5-difluoro-4-(1H-pyrazol-4-yl)phenyl]-N-methyl-N-(piperidin-4-yl)[1,3]thiazolo[5,4-d][1,3]thiazol-2-amine] was tested. Which IC50 did it give?
The IC50 was 1000 to 3000 nM.

Which IC50 does the source give for `Oc1cc(-c2cn[nH]c2)ccc1-c1nc2sc(NC3CCNCC3)nc2s1` [Compound 22, 2-[5-(piperidin-4-ylamino)[1,3]thiazolo[5,4-d][1,3]thiazol-2-yl]-5-(1H-pyrazol-4-yl)phenol] here?
The IC50 was ≤ 100 nM.

With `CN1CCC(Nc2nc3sc(-c4ccc(-c5cn[nH]c5)cc4O)nc3s2)CC1` [Compound 23, 2-{5-[(1-methylpiperidin-4-yl)amino][1,3]thiazolo[5,4-d][1,3]thiazol-2-yl}-5-(1H-pyrazol-4-yl)phenol] as the compound, how does the IC50 read?
Its IC50 is ≤ 100 nM.

How did the IC50 turn out when `CN1CCC(N(C)c2nc3sc(-c4ccc(-c5cn[nH]c5)cc4O)nc3s2)CC1` [Compound 24, 2-{5-[methyl(1-methylpiperidin-4-yl)amino][1,3]thiazolo[5,4-d][1,3]thiazol-2-yl}-5-(1H-pyrazol-4-yl)phenol] was run?
Its IC50 is ≤ 100 nM.

How did the IC50 turn out when `Cn1cc2cc(-c3nc4sc(C5CCNCC5)nc4s3)ccc2n1` [Compound 25, 2-methyl-5-[5-(piperidin-4-yl)[1,3]thiazolo[5,4-d][1,3]thiazol-2-yl]-2H-indazole] was run?
The IC50 was 100 to 500 nM.

How did the IC50 turn out when `COc1cc(-c2nc3sc(C4CCNCC4)nc3s2)cc2cn(C)nc12` [Compound 26, 7-methoxy-2-methyl-5-[5-(piperidin-4-yl)[1,3]thiazolo[5,4-d][1,3]thiazol-2-yl]-2H-indazole] was run?
Its IC50 is ≤ 100 nM.
